Experimental data from PMC9636434, “Discovery of small molecule agonists of the Relaxin Family Peptide Receptor 2” (Communications Biology, 2022).
Where “and” joins values, the source holds several entries; their conditions need not be identical. Equal values may be shown once. Entries after “also recorded” stand apart in the source; their conditions may differ.

How the values were obtained:
[1] = system: osteoblast markers Alp, Col1a1, Osteocalcin, Runx2; assay: Quantitative RT-PCR of osteoblast markers in tibia after 8-week oral treatment; format: in vivo, mouse; conditions: normalized to control group, 10 mg/kg PO, 8 weeks, individual mice
[2] = system: human aortic vascular smooth muscle cells (HAVSMC); assay: CellTiter-Glo cytotoxicity assay in HAVSMC cells; format: cell-based; conditions: experiments (1)-(3)
Source text: Fig. 4 RXFP2 agonists induce mineralization of primary human osteoblasts and are non-cytotoxic. a Mineral hydroxyapatite fluorescent quantification after 14-day treatment in HCO cells. Results were normalized to control DMSO as 100% mineralization. b HCO and c HAVSMC toxicity after 24-h treatment with RXFP2 agonists, normalized to DMSO treatment as 0% toxicity. Results are expressed as mean ± SEM of 3 independent experiments. *p < 0.05, *** p < 0.001 vs. DMSO using One-way ANOVA.
Cell viability studies were undertaken to identify potential cytotoxic effects of the RXFP2 agonists. HCO cells and human aortic vascular smooth muscle cells (HAVSMC) were treated for 24 h. […] At 8.3 µM and below, no toxicity was found in HCO cells and toxicity was below 20% in HAVSMC cells for all three compounds (Fig. 4b, c).
The ATP CellTiter-Glo Luminescent Cell Viability Assay (Promega, Madison, WI) was used to measure cytotoxicity induced by the compounds in HCO cells and human aortic vascular smooth muscle cells (HAVSMC) (ATCC, Manassas, VA). HCO and HAVSMC cells were seeded in 96-well plates at 3000 and 7000 cells per well respectively. Cells were incubated overnight, treated with compound or DMSO vehicle and incubated for 24 h at 37 °C, 5% CO2. […] Plates were shaken for 2 min, incubated at room temperature for 10 min and the luminescent signal was read on a CLARIOstar plate reader.

RXFP2 = RXFP2 (Homo sapiens, UniProt Q8WXD0); assay: PRESTO-Tango β-arrestin recruitment, RXFP2; format: cell-based; set-up: host or cells: HTLA (transient); conditions: 10 µM compound
Sequence of RXFP2 (Q8WXD0 whole entry): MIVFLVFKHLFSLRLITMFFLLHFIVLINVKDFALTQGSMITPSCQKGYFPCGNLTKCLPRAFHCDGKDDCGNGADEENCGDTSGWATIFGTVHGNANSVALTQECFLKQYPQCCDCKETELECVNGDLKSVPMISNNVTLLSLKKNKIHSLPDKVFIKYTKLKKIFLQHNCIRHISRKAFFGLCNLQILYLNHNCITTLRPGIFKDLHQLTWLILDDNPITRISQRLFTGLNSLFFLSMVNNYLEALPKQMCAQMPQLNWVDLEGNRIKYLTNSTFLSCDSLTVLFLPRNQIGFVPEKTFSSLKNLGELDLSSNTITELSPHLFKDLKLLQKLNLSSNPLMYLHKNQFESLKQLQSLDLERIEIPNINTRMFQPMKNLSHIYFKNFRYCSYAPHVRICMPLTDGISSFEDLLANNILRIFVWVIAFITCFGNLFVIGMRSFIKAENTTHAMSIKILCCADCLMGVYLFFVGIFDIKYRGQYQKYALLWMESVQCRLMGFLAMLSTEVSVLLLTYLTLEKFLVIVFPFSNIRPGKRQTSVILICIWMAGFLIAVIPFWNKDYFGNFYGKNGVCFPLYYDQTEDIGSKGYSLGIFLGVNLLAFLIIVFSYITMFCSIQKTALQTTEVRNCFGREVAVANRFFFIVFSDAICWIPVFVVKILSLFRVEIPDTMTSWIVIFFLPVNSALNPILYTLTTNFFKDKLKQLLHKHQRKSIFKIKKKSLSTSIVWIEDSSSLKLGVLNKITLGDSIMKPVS
Experimental: β-arrestin is an important GPCR adaptor protein that mediates several receptor processes including signaling, desensitization, and trafficking. The PRESTO-Tango GPCRome assay was further used to test specificity and selectivity of lead RXFP2 agonists 6641 and 4337. GPCR-mediated β-arrestin recruitment for a panel of 320 human GPCRs was studied in transiently transfected HTLA cells treated with 10 µM compound. The results for all 320 GPCRs tested are summarized in Supplementary Data 1. […] ADORA1 activation by an agonist results in Gαi protein binding, an inhibition of adenylate cyclase and, therefore, a decrease in the cAMP concentration.
To further investigate possible off-target effects of small molecule agonists of RXFP2 on GPCRs, we performed a PRESTO-Tango assay of 320 GPCRs to detect β-arrestin recruitment to the receptors after treatment with our compounds. […] This might be beneficial in clinical applications, as it potentially reduces the amount of drug needed to induce a biological response for this target, even in cells with low receptor expression. It should be noted also that a PRESTO-Tango assay is not designed to detect inhibitors of β-arrestin recruitment.
The PRESTO-Tango GPCRome assay was used to perform a HTS of related GPCRs to study specificity and selectivity of the RXFP2 agonists by measuring β-arrestin translocation activity. […]

[3] = system: chimera RXFP2-1 (extracellular domain of RXFP2, transmembrane domain of RXFP1); assay: HTRF cAMP assay in HEK293T cells transiently transfected with chimera RXFP2-1; format: cell-based, human
Experimental: Fig. 2 6641 is an allosteric agonist of RXFP2. a HEK-RXFP2 cells co-treated with serial dilutions of INSL3 B dimer antagonist and 30 nM INSL3 or 0.28 µM 6641. HTRF cAMP dose-response inhibition curves were normalized to activity without antagonist co-treatment as 0% inhibition. b HTRF cAMP assay in HEK293T cells transiently transfected with WT or chimeric receptors. Chimera RXFP2-1 contains the extracellular domain of RXFP2 and the transmembrane domain of RXFP1, while chimera RXFP1-2 contains the extracellular domain of RXFP1 and the transmembrane domain of RXFP2. For each receptor, cAMP response induced by INSL3 and 6641 was normalized to FSK (2 µM) as 100% efficacy and DMSO vehicle as 0% efficacy. Emax and EC50 were calculated using four parameter nonlinear fit dose-response curves. Results are expressed as mean ± SEM of 3 independent experiments. Diagrams of the chimeric receptors were produced using GPCRdb.org[58], [59].
Complementary RXFP2-1 and RXFP1-2 chimeric receptors were used to further investigate the involvement of the RXFP2 extracellular and transmembrane domains on 6641 activity. RXFP2-1 has the extracellular domain of RXFP2 and transmembrane domain of RXFP1, and RXFP1-2 is its complement.
The HTRF Gs dynamic cAMP assay kit (CisBio, Bedford, MA) was used to measure intracellular cAMP accumulation in HEK293T cells (ATCC, Manassas, VA)[56]. […] The cell stock was verified mycoplasma free and authenticated by ATCC. Transient transfection was accomplished by treating cells in a 6-well plate with a mixture of 2 μg plasmid and 6 μL Lipofectamine 2000 (Invitrogen, Waltham, MA) per manufacturer’s protocol and incubating overnight. For cAMP measurement in 96-well format, HEK293T cells stably transfected with human RXFP2 (HEK-RXFP2), human RXFP1 (HEK-RXFP1), mouse Rxfp1 (HEK-Rxfp1) or transiently transfected with human RXFP1-RXFP2 chimeric receptors were seeded between 7500 and 30,000 cells per well, depending on cell line responsiveness, in serum-free DMEM medium and incubated overnight at 37 °C, 5% CO2. After 18 h, cells were treated with a titration of compound, 2 μM forskolin, or DMSO vehicle. Control wells were also treated with a titration of INSL3 (Phoenix Pharmaceuticals, Burlingame, CA) or human recombinant relaxin 2 (Peprotech, Cranbury, NJ). For the RXFP2 antagonist experiment, cells were co-treated with 0.28 μM compound or 30 nM INSL3 and a titration of the INSL3 B dimer antagonist[38],[39]. For the INSL3 allosteric modulation experiment, cells were co-treated with 0.025, 0.0025, or 0.00025 μM of compound and a titration of INSL3. […] Plates were incubated for 1 h at room temperature and the signal was read on a CLARIOstar plate reader (BMG Labtech, Ortenberg, Germany) at 665 and 620 nm emission wavelengths.

## O=C1Nc2ccc(-c3cc(C(F)(F)F)cc(C(F)(F)F)c3)cc2C(=O)N2CCN(C(=O)COc3ccc(OC(F)(F)F)cc3I)C[C@@H]12 [compound 6641]
[1]
  Alp gene expression: No significant differences and 0.88 and 1.46 and 1.09 and 1.63 and 1.11 and 1.2 and 1.13 and 0.7 and 1.17 and 0.71 and 0.82 and 1.61 and 1.28 and 1.02
  Col1a1 gene expression: No significant differences and 1.04 and 1.44 and 0.9 and 1.62 and 0.96 and 1.32 and 0.82 and 1.12 and 1.24 and 0.81 and 0.88 and 1.29 and 0.93
  Osteocalcin gene expression: significant increase and 1.47 and 0.79 and 1.35 and 1.31 and 2.35 and 1.34 and 2.19 and 1.5 and 2.42 and 1.3 and 1.4 and 1.23 and 2.1 and 1.83 and 1.39
  Runx2 gene expression: decrease and 0.41 and 0.71 and 0.95 and 0.75 and 1.16 and 0.6 and 0.57 and 0.72 and 0.73 and 0.89 and 0.83 and 1.42 and 1.07 and 0.66
[2]; Log [M] -5.08, 24 h
  % Tox: 15.51% and 24.11% and 15.33%
[2]; Log [M] -5.56, 24 h
  % Tox: 15.84% and 5.85%
RXFP2
  RXFP2-mediated β-arrestin recruitment: not detected
[3]; 6641, individual experiments
  EC50 (1)-(3): Inactive
[3]; 6641, mean of 3
  EC50 (AVERAGE): Inactive
[3]; individual experiments, FSK (2 µM) = 100% efficacy
  Emax (1)-(3): Inactive
[3]; mean (± SEM) of 3, FSK (2 µM) = 100% efficacy
  Emax (AVERAGE): Inactive; also recorded: did not stimulate cAMP production
